The record followed here is patent publication US10344264B2, “Culturing of human embryonic stem cells at the air-liquid interface for differentiation into pancreatic endocrine cells” (Janssen Biotech, Inc., priority 2012, dated 2019).

Like-named read-outs stand apart in the source and are kept apart here.

In experiment [1] the test system is cells of the human embryonic stem cell line H1. Conditions: air-liquid interface, 1000 nM ALK5 inhibitor in Stages 5 and 6.
Description: Cells of the human embryonic stem cell line H1 (passage 40) were seeded as single cells at 1×10^5 cells/cm^2 on […] ™ (1:30 dilution; BD Biosciences, NJ)-coated dishes in a media comprising DMEM-F12 (Invitrogen, Ca), GlutaMax™ (1:100 dilution, Invitrogen), 0.25 mM ascorbic acid (Sigma, MO), 100 ng/ml of FGF2 (R & D systems, MN), 1 ng/ml of TGF-β (R & D systems), ITS-X (1:100 dilution), 2% fatty-acid free BSA (Lampire, PA), and 20 ng/ml of IGF-1 (R & D systems), supplemented with 10 μM of Y27632 (Rock inhibitor, Catalog No. Y0503, Sigma-Aldrich). Forty-eight hours post-seeding, cultures were washed in incomplete PBS (phosphate buffered saline without Mg or Ca). The cells were then differentiated according to the following protocol: • a. Stage 1 (3 days): Cells were cultured for one day in MCDB-131 medium (Invitrogen Catalog No. 10372-019) supplemented with 2% fatty acid-free BSA (Proliant, Catalog No. 68700); 0.0012 g/ml sodium bicarbonate (Sigma-Aldrich, Catalog No. S3187); 1× GlutaMax™ (Invitrogen, Catalog No. 35050-079); 4.5 mM D-glucose (Sigma-Aldrich, Catalog No. G8769); 100 ng/ml GDF8 (R&D Systems); and 1 μM MCX compound. Cells were then cultured for an additional day in MCDB-131 medium supplemented with: 2% fatty acid-free BSA; 0.0012 g/ml sodium bicarbonate; 1× GlutaMax™; 4.5 mM D-Glucose; 100 ng/ml GDF8; and 0.1 μM MCX compound. […]
For experiment [2] the test system is unchanged. Conditions: air-liquid interface; mRNA at Stage 6 day 5 and day 8.
Description: Cells of the human embryonic stem cell line H1 (passage 42) were seeded as single cells at 1×10^5 cells/cm^2 on […] ™ (1:30 dilution; BD Biosciences, NJ)-coated dishes in a media comprising of DMEM-F12 (Invitrogen, Ca), GlutaMax™ (1:100 dilution, Invitrogen), 0.25 mM ascorbic acid (Sigma, MO), 100 ng/ml of FGF2 (R & D systems, MN), 1 ng/ml of TGF-β (R & D systems), ITS-X (1:100 dilution), 2% fatty-acid free BSA (Lampire, PA), and 20 ng/ml of IGF-1 (R & D systems), supplemented with 10 μM of Y27632 (Rock inhibitor, Catalog No. Y0503, Sigma). Forty-eight hours post-seeding, cultures were washed in incomplete PBS (phosphate buffered saline without Mg or Ca). The cells were then differentiated according to the following protocol: • a) Stage 1 (3 days): Cells were cultured for one day in MCDB-131 medium (Invitrogen Catalog No. 10372-019) supplemented with 2% fatty acid-free BSA (Proliant Catalog No. 68700), 0.0012 g/ml sodium bicarbonate (Sigma-Aldrich Catalog No. S3187); 1× GlutaMax™ (Invitrogen Catalog No. 35050-079); 4.5 mM D-glucose (Sigma-Aldrich Catalog No. G8769); 100 ng/ml GDF8 (R&D Systems); and 1 μM MCX compound. Cells were then cultured for an additional day in MCDB-131 medium supplemented with 2% fatty acid-free BSA, 0.0012 g/ml sodium bicarbonate, 1× GlutaMax™, 4.5 mM D-glucose, 100 ng/ml GDF8, and 0.1 μM MCX compound. […]
Experiment [3] shares this test system.
Excerpt: At Stage 4 and subsequent cultures, mRNA was collected for PCR analysis of relevant pancreatic endoderm/endocrine genes. Total RNA was extracted with the RNeasy® Mini Kit (Qiagen; Valencia, Calif.) and reverse-transcribed using a High Capacity cDNA Reverse Transcription Kit (Applied Biosystems, Foster City, Calif.) according to manufacturers' instructions. cDNA was amplified using Taqman Universal Master Mix and Taqman Gene Expression Assays which were pre-loaded onto custom Taqman Arrays (Applied Biosystems).
Cells were then cultured for an additional day in MCDB-131 medium supplemented with 2% fatty acid-free BSA, 0.0012 g/ml sodium bicarbonate, 1× GlutaMax™, 4.5 mM D-Glucose, 100 ng/ml GDF8, and 0.1 μM MCX compound. […]
Experiment [4] has the same test system. This is another data set of the same source.
Description: Cells of the human embryonic stem cell line H1 (passage 40) were seeded as single cells at 1×10^5 cells/cm^2 on […] ™ (1:30 dilution; BD Biosciences, NJ)-coated dishes or Matrigel-coated filter inserts (Millipore PIHT 30R 48) in a media comprising of DMEM-F12 (Invitrogen, Ca), Glutamax (1:100 dilution, Invitrogen), 0.25 mM ascorbic acid (Sigma, MO), 100 ng/ml of FGF2 (R & D systems, MN), 1 ng/ml of TGF-B (R & D systems), ITS-X (1:100 dilution), 2% fatty-acid free BSA (Lampire, PA), and 20 ng/ml of IGF-1 (R & D systems), supplemented with 10 μM of Y27632 (Rock inhibitor, Catalog No. Y0503, SigmaAldrich, St. Louis, Mo.). Forty-eight hours post seeding, cultures were washed in incomplete PBS (phosphate buffered saline without Mg or Ca). The cells were then differentiated according to the following protocol: • a) Stage 1 (3 days): Cells were cultured for one day in MCDB-131 medium (Invitrogen Catalog No. 10372-019) supplemented with 2% fatty acid-free BSA (Proliant Catalog No. 68700), 0.0012 g/ml sodium bicarbonate (SigmaAldrich Catalog No. S3187), 1× GlutaMax™ (Invitrogen Catalog No. 35050-079), 4.5 mM D-Glucose (SigmaAldrich Catalog No. G8769), 100 ng/ml GDF8 (R&D Systems) and 1 μM MCX compound. Cells were then cultured for an additional day in MCDB-131 medium supplemented with 2% fatty acid-free BSA, 0.0012 g/ml sodium bicarbonate, 1× GlutaMax™, 4.5 mM D-Glucose, 100 ng/ml GDF8, and 0.1 μM MCX compound. […]
The test system is the same in experiment [5]. As to the kind of experiment: Real-time PCR of Stage 6 cells at the air-liquid interface with gamma secretase inhibitor XX (Example 12). Conditions: 100 nM to 5000 nM at Stage 6; mRNA at Stage 6 day 4 and day 8. In kind it is cell-based. As to the method: This example highlights that NOTCH inhibitors, such as gamma secretase inhibitors, further enhance maturation markers of β cells while retaining expression of NKX6.1.
At Stage 6, various doses (100 nM to 5000 nM) of gamma Secretase inhibitor XX (EMD, #565789) were tested. mRNA was collected at Stage 6 day 4 and Stage 6 day 8. FIG. 21 depicts the PCR data for key β cell maturation markers along with pancreatic progenitor markers.
For orientation: Quantitative PCR measures a nucleic acid by following its amplification.

For `Cc1cccc(-c2[nH]ncc2-c2ccc3ncccc3n2)n1` [ALK5 inhibitor II], in experiment [1], the expression of glucagon result is reported as “significantly enhanced”. The expression of insulin entry in experiment [1] is “significantly enhanced”. For the same compound, in experiment [2], the “expression of MAFA on removal of the inhibitor at Stage 6” value was “dramatic drop”. Moreover, the “insulin expression at Stage 6 as compared to Stage 5” value is recorded as “enhancement” in experiment [3] (cultures at the air-liquid interface); “drop” in experiment [3] (planar cultures treated at Stage 5 and Stage 6). Moreover, the “co-expression of NKX6.1 and chromogranin-A (immunostaining)” value in experiment [4] (Stage 6 cells at the air-liquid interface, 1 micro molar inhibitor) was “co-expression of NKX6.1 and chromogranin-A”. For the same compound, the “number of NKX6.1 positive cells co-expressing insulin or chromogranin-A” value in experiment [4] (filter inserts at the air-liquid interface) is reported as “significantly enhanced”; in experiment [4] (same protocol on traditional monolayer cultures) it was “failed to show significant numbers”.
Take `C[C@H](NC(=O)Cc1cc(F)cc(F)c1)C(=O)N[C@@H]1C(=O)N(C)c2ccccc2-c2ccccc21` [gamma Secretase inhibitor XX]: in experiment [5], the Amylin expression result is listed as “significantly upregulated”, the MAFA expression entry is listed as “significantly upregulated”, the NKX6.1 expression result is recorded as “not significantly affected” and the PTF1a expression entry is recorded as “significantly down regulated”. For the same compound, in experiment [5], the SOX9 expression entry was “significantly down regulated” and the insulin expression result is recorded as “significantly upregulated”.
